Experimental data from article PMC10934024, “Protein–Ligand Binding and Structural Modelling Studies of Pheromone-Binding Protein-like Sol g 2.1 from Solenopsis geminata Fire Ant Venom” (Molecules, 2024).

Assays:
rSol g 2.1 protein [1] = target: T1, rSol g 2.1 protein (Solenopsis geminata, UniProt A0A9E7V488); test: Fluorescence competitive binding assay (NPN displacement); settings: 2 µM rSol g 2.1 with 4 µM NPN, ligand 0-4 µM, 50 mM Tris-HCl pH 7.4
T1 sequence (A0A9E7V488 1-119): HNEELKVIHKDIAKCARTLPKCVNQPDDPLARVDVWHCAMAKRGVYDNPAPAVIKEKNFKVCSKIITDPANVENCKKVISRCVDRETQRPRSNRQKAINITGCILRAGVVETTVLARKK
Description: The binding of the endogenous ligands, including decane, undecane dodecane, and tridecane, to rSol g 2.1 protein was measured by a competitive binding assay. In this procedure, 1 mL of rSol g 2.1 protein (2 µM) in 50 mM Tris-HCl (pH 7.4) containing NPN (4 µM) was titrated with each ligand (1 mM in methanol stock) to the final concentrations of 0, 0.125, 0.375, 0.625, 0.875, 1.125, 2, 3, and 4 µM. Additionally, the same concentrations of the blended ligands, which consisted of decane (45%), undecane (36%), dodecane (15%), and tridecane (4%), were used to investigate the blend effect of Sol g 2.1 protein. The resulting isotherms were fitted (GraphPad Prism 9) to both a one-site model and an allosteric model.

Sol i 2 = settings: cited from earlier work
rSol g 2.1 protein [2] = target: T1, rSol g 2.1 protein; test: Fluorescence binding assay, NPN titration into rSol g 2.1
Description: The fluorescence binding assay of rSol g 2.1 protein was conducted using the fluorescent probe N-phenyl-1-naphtylamine (NPN). […] The fluorescence intensity was measured on a PTI QuantaMaster fluorometer (Horiba Ltd., Kyoto, Japan) with a 337 nm excitation wavelength and emission scan ranging from 300–500 nm at room temperature in triplicate. To obtain the equilibrium dissociation (Kd) value, the fluorescence intensity at the maximal emission wavelength 400 nm was plotted for each NPN concentration. Data were fitted to a specific allosteric binding model using GraphPad Prism Version 9.0 (GraphPad Software, San Diego, CA, USA). Y = Bmax × X^h/(Kd^h + X^h) was used as an equation in the fitting model, where Bmax is the maximal specific binding in the same unit as Y, X is the NPN concentration (µM), and Y is the fluorescence intensity counts/second. Moreover, h is the Hill slope, which is 1.0 for cases with one site. If there is more than one binding site per protein and there is cooperativity, then h > 1.0, and the graph takes on a sigmoidal appearance.

In the case of `CCCCCCCCCCC` [undecane, Undecane], the Kd (rSol g 2.1 protein [1]) is listed as 330 nM and the binding affinity (Sol i 2) is listed as “high binding affinity”.
`CCCCCCCCCCCCC` [tridecane, Tridecane] showed a Kd (rSol g 2.1 protein [1]) of 380 nM.
In the case of `C=CC(=C)CC/C=C(\C)CCC=C(C)C` [(E)-β-farnesene], the binding affinity (Sol i 2) is listed as “high binding affinity”.
For `c1ccc(Nc2cccc3ccccc23)cc1` [NPN, N-phenyl-1-naphtylamine], the Kd (rSol g 2.1 protein [2]; 2 µM rSol g 2.1, 50 mM Tris-HCl pH 7.4, NPN 0-12 µM, emission 400 nm, specific binding with Hill slope model) was 1900 ± 80 nM and the “h slope (Hill slope)” value (rSol g 2.1 protein [2]; same fit as Kd of NPN) was 1.64 ± 0.12.
In the case of `CCCCCCCCCC` [decane, Decane], the Kd (rSol g 2.1 protein [1]) is listed as 320 nM and the binding affinity (Sol i 2) is listed as “high binding affinity”.
Compound `CCCCCCCCCCCC` [dodecane, Dodecane] has a Kd (rSol g 2.1 protein [1]) of 390 nM.
